{"source": "patent US12612413B2", "about": "“Heteroaryl compounds as inhibitors of programmed necrosis pathway, composition and method using the same” (ACCRO BIOSCIENCE INC., priority 2020, dated 2026)", "note": "pEC50: −log10 of the molar value."}
{"tested_on": "HT-29 cells", "assay": "HT-29 cell viability (necroptosis) assay", "assay_type": "cell-based", "conditions": "Homo sapiens, TNF-α (40 ng/mL), Smac mimetic (100 nM), z-VAD (20 μM), 40 h, from survival rate curve", "procedure": "(§1) Human colon cancer HT-29 cells were used in a necroptosis assay. For this assay, HT-29 cells were added to 96-well plates. The compounds at different concentrations (0.3, 1.0, 3.0, 10.0, 20.0 μM) were then preprocessed for two hours. TNF-α (40 ng/mL), Smac mimetic (100 nM) and z-VAD (20 μM) were added, and the mixture was incubated for 40 h. Quantitative analysis of cell viability was conducted. DMSO pretreatment group was used as a negative control. Concentration for 50% of maximal effect was calculated according to the curve of the survival rate measured at different concentrations. FIG. 1 depicts the EC50 curves of compound A16."}
{"smiles": "O=S1(=O)C=C(OCCO)c2cc3nccc(Nc4ccc5scnc5c4)c3cc21", "note": "[Compound A16, 8-(benzo[d]thiazol-5-ylamino)-3-(2-hydroxyethoxy)thieno[2,3-g]quinoline 1,1-dioxide]", "pEC50": 5.89}
{"smiles": "CC1(C)C(=O)c2cc3nccc(Nc4cc(O)c(Cl)cc4F)c3cc2S1(=O)=O", "note": "[Compound B16]", "pEC50": 5.90}
{"smiles": "COc1c2c(cc3c(Nc4ccc5scnc5c4)ccnc13)S(=O)(=O)C=C2", "note": "[Compound A108]", "pEC50": 6.20}
{"smiles": "CC1=Cc2cc3nccc(Nc4ccn5ccnc5c4)c3cc2S1(=O)=O", "note": "[Compound A67, 8-(imidazo[1,2-a]pyridin-7-ylamino)-2-methylthieno[2,3-g]quinoline 1,1-dioxide]", "pEC50": 5.24}
{"smiles": "Cn1cc(C2=CS(=O)(=O)c3cc4c(Nc5ccc6scnc6c5)ccnc4cc32)cn1", "note": "[Compound A31]", "pEC50": 5.99}
{"smiles": "O=S1(=O)C=C(C2CC2)c2cc3nccc(Nc4cc(O)c(F)cc4F)c3cc21", "note": "[Compound A100]", "pEC50": 6.02}
{"smiles": "CC(C)OC1=Cc2cc3nccc(Nc4ccc5scnc5c4)c3cc2S1(=O)=O", "note": "[Compound A15]", "pEC50": 6.30}
{"smiles": "O=S1(=O)C=C(c2cn[nH]c2)c2cc3nccc(Nc4ccc5scnc5c4)c3cc21", "note": "[Compound A30]", "pEC50": 7.01}
{"smiles": "COC1=CS(=O)(=O)c2cc3c(Nc4ccc5scnc5c4)ccnc3cc21", "note": "[Compound A12, 8-(benzo[d]thiazol-5-ylamino)-3-methoxythieno[2,3-g]quinoline 1,1-dioxide]", "pEC50": 5.99}
{"smiles": "CC1=Cc2cc3nccc(Nc4n[nH]c5ccc(F)cc45)c3cc2S1(=O)=O", "note": "[Compound A36]", "pEC50": 5.24}
{"smiles": "O=S1(=O)C=C(c2ccncc2)c2cc3nccc(Nc4ccc5scnc5c4)c3cc21", "note": "[Compound A28]", "pEC50": 6.00}
{"smiles": "O=S1(=O)C=Cc2cc3nccc(Nc4ccc5scnc5c4)c3cc21", "note": "[Compound A2]", "pEC50": 5.99}
{"smiles": "CC(C)C1=Cc2cc3nccc(Nc4ccc5scnc5c4)c3cc2S1(=O)=O", "note": "[Compound A5]", "pEC50": 6.12}
{"smiles": "O=S1(=O)C=C(OC2CCNC2)c2cc3nccc(Nc4ccc5scnc5c4)c3cc21", "note": "(stereo not shown) [Compound A113]", "pEC50": 5.70}
{"smiles": "O=S1(=O)C=C(C2CC2)c2cc3nccc(Nc4ccc5cn[nH]c5c4)c3cc21", "note": "[Compound A91]", "pEC50": 6.80}
{"smiles": "CC1=CS(=O)(=O)c2cc3c(Nc4cc(O)c(F)cc4F)ccnc3cc21", "note": "[Compound A83]", "pEC50": 6.00}
{"smiles": "COC1=C(C)S(=O)(=O)c2cc3c(Nc4ccc5scnc5c4)ccnc3cc21", "note": "[Compound A19]", "pEC50": 6.70}
{"smiles": "CN1CCC(OC2=CS(=O)(=O)c3cc4c(Nc5ccc6scnc6c5)ccnc4cc32)C1", "note": "(stereo not shown) [Compound A114]", "pEC50": 6.51}
{"smiles": "CCC1=CS(=O)(=O)c2cc3c(Nc4ccc5scnc5c4)ccnc3cc21", "note": "[Compound A10]", "pEC50": 5.86}
{"smiles": "CC1=C(C)S(=O)(=O)c2cc3c(Nc4ccc5scnc5c4)ccnc3cc21", "note": "[Compound A8]", "pEC50": 6.28}
{"smiles": "CC1(C)C(O)c2cc3nccc(Nc4ccc5scnc5c4)c3cc2S1(=O)=O", "note": "(stereo not shown) [Compound B9]", "pEC50": 6.21}
{"smiles": "Cc1ccc(O)cc1Nc1ccnc2cc3c(cc12)S(=O)(=O)C(C)(C)C3=O", "note": "[Compound B13]", "pEC50": 6.28}
{"smiles": "CC1=Cc2cc3nccc(Nc4ccc(O)c(C#N)c4)c3cc2S1(=O)=O", "note": "[Compound A58]", "pEC50": 5.40}
{"smiles": "Cc1ccc(O)cc1Nc1ccnc2cc3c(cc12)S(=O)(=O)C=C3", "note": "[Compound A107]", "pEC50": 5.97}
{"smiles": "O=S1(=O)C=C(C2CC2)c2cc3nccc(Nc4ccn5ccnc5c4)c3cc21", "note": "[Compound A104]", "pEC50": 4.92}
{"smiles": "O=S1(=O)C=C(C2CC2)c2cc3nccc(Nc4cc(O)ccc4F)c3cc21", "note": "[Compound A89]", "pEC50": 6.66}
{"smiles": "O=S1(=O)C=C(C2CC2)c2cc3nccc(Nc4cc(O)c(Cl)cc4F)c3cc21", "note": "[Compound A101]", "pEC50": 6.40}
{"smiles": "Cc1ccc(O)cc1Nc1ccnc2cc3c(cc12)S(=O)(=O)C=C3C1CC1", "note": "[Compound A95]", "pEC50": 6.52}
{"smiles": "O=S1(=O)C=C(O[C@H]2CCOC2)c2cc3nccc(Nc4ccc5scnc5c4)c3cc21", "note": "[Compound A117]", "pEC50": 6.41}
{"smiles": "O=S1(=O)C=C(C2CC2)c2cc3nccc(Nc4cncc(O)c4)c3cc21", "note": "[Compound A102]", "pEC50": 5.05}
{"smiles": "O=S1(=O)C=C(c2ccc(F)cc2)c2cc3nccc(Nc4ccc5scnc5c4)c3cc21", "note": "[Compound A26]", "pEC50": 6.24}
{"smiles": "O=S1(=O)C=C(C2CC2)c2cc3nccc(Nc4ccc5nn[nH]c5c4)c3cc21", "note": "[Compound A92]", "pEC50": 6.38}
{"tested_on": "HT-29 cells", "assay": "HT-29 cell viability (necroptosis) assay", "assay_type": "cell-based", "conditions": "Homo sapiens, compound at 20 μM, TNF-α (40 ng/mL), Smac mimetic (100 nM), z-VAD (20 μM), 40 h, read-out: HT-29(20 μM) Survival", "procedure": "as §1", "units": {"viability at 20 µM": "%"}}
{"smiles": "O=S1(=O)C=Cc2cc3nccc(Nc4ccc5scnc5c4)c3c(O)c21", "note": "[Compound A109]", "viability at 20 µM": 25}
{"smiles": "CC1=Cc2cc3nccc(Nc4cc(O)cc(Br)c4)c3cc2S1(=O)=O", "note": "[Compound A60]", "viability at 20 µM": 13.9}
{"smiles": "O=S1(=O)CC(c2ccccc2)c2cc3nccc(Nc4ccc5scnc5c4)c3cc21", "note": "(stereo not shown) [Compound B23]", "viability at 20 µM": 12.7}
{"smiles": "CC1=Cc2cc3nccc(Nc4ccc5[nH]nnc5c4)c3cc2S1(=O)=O", "note": "[Compound A39]", "viability at 20 µM": 63.5}
{"smiles": "CC1=Cc2cc3nccc(Nc4cncc(N)c4)c3cc2S1(=O)=O", "note": "[Compound A64]", "viability at 20 µM": 20.2}
{"smiles": "CC(=O)Nc1ccc(C)c(Nc2ccnc3cc4c(cc23)S(=O)(=O)C(C)=C4C)c1", "note": "[Compound A86]", "viability at 20 µM": 20.5}
{"smiles": "CC1=CS(=O)(=O)c2cc3c(Nc4n[nH]c5ccc(F)cc45)ccnc3cc21", "note": "[Compound A73]", "viability at 20 µM": 40.7}
{"smiles": "CC1(C)C(=O)c2cc3nccc(Nc4n[nH]c5ccc(F)cc45)c3cc2S1(=O)=O", "note": "[Compound B19]", "viability at 20 µM": 7.2}
{"smiles": "CC1(O)c2cc3nccc(Nc4ccc5scnc5c4)c3cc2S(=O)(=O)C1(C)C", "note": "(stereo not shown) [Compound B10, 8-(benzo[d]thiazol-5-ylamino)-3-hydroxy-2,2,3-trimethyl-2,3-dihydrothieno[2,3-g]quinoline 1,1-dioxide]", "viability at 20 µM": 36.4}
{"smiles": "O=S1(=O)C=C(C2CC2)c2cc3nccc(Nc4ccc5nc[nH]c5c4)c3cc21", "note": "[Compound A94]", "viability at 20 µM": 28.9}
{"smiles": "CC1=C(C)S(=O)(=O)c2cc3c(Nc4n[nH]c5ccc(F)cc45)ccnc3cc21", "note": "[Compound A84]", "viability at 20 µM": 18.1}
{"smiles": "CC1=Cc2cc3nccc(Nc4ccc(O)c(Br)c4)c3cc2S1(=O)=O", "note": "[Compound A56]", "viability at 20 µM": 23.2}
{"smiles": "CNCCOC1=CS(=O)(=O)c2cc3c(Nc4ccc5scnc5c4)ccnc3cc21", "note": "[Compound A111]", "viability at 20 µM": 42}
{"smiles": "CC1=Cc2cc3nccc(Nc4n[nH]c(C)c4C)c3cc2S1(=O)=O", "note": "[Compound A38]", "viability at 20 µM": 37.6}
{"smiles": "CC1=Cc2cc3nccc(Nc4ccc(O)cc4C)c3cc2S1(=O)=O", "note": "[Compound A51]", "viability at 20 µM": 16.1}
{"smiles": "CC1=CS(=O)(=O)c2cc3c(Nc4cc(N)ccc4C)ccnc3cc21", "note": "[Compound A78]", "viability at 20 µM": 10.5}
{"smiles": "O=C1c2c(cc3c(Nc4ccc5scnc5c4)ccnc3c2Cl)S(=O)(=O)C12CC=CC2", "note": "[Compound B21]", "viability at 20 µM": 4.9}
{"smiles": "CC1=CS(=O)(=O)c2cc3c(Nc4ccc(O)cc4C)ccnc3cc21", "note": "[Compound A80]", "viability at 20 µM": 14.4}
{"smiles": "O=C1NCCc2ccc(Nc3ccnc4cc5c(cc34)S(=O)(=O)C=C5C3CC3)cc21", "note": "[Compound A93]", "viability at 20 µM": 11.1}
{"smiles": "O=S1(=O)c2cc3c(Nc4ccc5scnc5c4)ccnc3cc2OCC12CC2", "note": "[Compound B25]", "viability at 20 µM": 70.7}
{"smiles": "CC1=Cc2cc3nccc(Nc4ccn5ncnc5c4)c3cc2S1(=O)=O", "note": "[Compound A69]", "viability at 20 µM": 10.5}
{"smiles": "Cc1n[nH]c(Nc2ccnc3cc4c(cc23)S(=O)(=O)C(C)(C)C4=O)c1C", "note": "[Compound B18]", "viability at 20 µM": 22.7}
{"smiles": "N#Cc1cc(Nc2ccnc3cc4c(cc23)S(=O)(=O)C=C4C2CC2)ccc1O", "note": "[Compound A98]", "viability at 20 µM": 14.8}
{"smiles": "CC1=Cc2cc3nccc(Nc4ccc(O)c(Cl)c4)c3cc2S1(=O)=O", "note": "[Compound A55]", "viability at 20 µM": 25.6}
{"smiles": "CC1=Cc2cc3nccc(Nc4cc(N)ncc4C)c3cc2S1(=O)=O", "note": "[Compound A63]", "viability at 20 µM": 48.8}
{"smiles": "CC1=Cc2cc3nccc(Nc4cc(O)cc(F)c4)c3cc2S1(=O)=O", "note": "[Compound A59]", "viability at 20 µM": 27.9}
{"smiles": "CC1=C(C)S(=O)(=O)c2cc3c(Nc4cc(N)ccc4C)ccnc3cc21", "note": "[Compound A87]", "viability at 20 µM": 15.5}
{"smiles": "CC1=Cc2cc3nccc(Nc4cnc5snc(C)c5c4)c3cc2S1(=O)=O", "note": "[Compound A44]", "viability at 20 µM": 20.1}
{"smiles": "CC1=Cc2cc3nccc(Nc4cc(O)ccc4C)c3cc2S1(=O)=O", "note": "[Compound A46]", "viability at 20 µM": 13.1}
{"smiles": "Nc1cc(C2=CS(=O)(=O)c3cc4c(Nc5ccc6scnc6c5)ccnc4cc32)ccn1", "note": "[Compound A29]", "viability at 20 µM": 1.1}
{"smiles": "CC(=O)Nc1ccc(C)c(Nc2ccnc3cc4c(cc23)S(=O)(=O)C=C4C)c1", "note": "[Compound A77]", "viability at 20 µM": 12.9}
{"smiles": "CC1=Cc2cc3nccc(Nc4ccc5nc[nH]c5c4)c3cc2S1(=O)=O", "note": "[Compound A40]", "viability at 20 µM": 5.8}
{"smiles": "CC1=Cc2cc3nccc(Nc4cc(F)cc(F)n4)c3cc2S1(=O)=O", "note": "[Compound A70]", "viability at 20 µM": 16.5}
{"smiles": "CC1=Cc2cc3nccc(Nc4cc(N)cc(F)n4)c3cc2S1(=O)=O", "note": "[Compound A71, 8-((4-amino-6-fluoropyridin-2-yl)amino)-2-methylthieno[2,3-g]quinoline 1,1-dioxide]", "viability at 20 µM": 23.4}
{"smiles": "C#Cc1cc(O)cc(Nc2ccnc3cc4c(cc23)S(=O)(=O)C(C)=C4)c1", "note": "[Compound A62]", "viability at 20 µM": 22.3}
{"smiles": "CC1=CS(=O)(=O)c2cc3c(Nc4cc(O)ccc4F)ccnc3cc21", "note": "[Compound A79]", "viability at 20 µM": 39.4}
{"smiles": "COc1ccc(C)c(Nc2ccnc3cc4c(cc23)S(=O)(=O)C(C)=C4)c1", "note": "[Compound A47]", "viability at 20 µM": 17.5}
{"smiles": "CC1=CS(=O)(=O)c2cc3c(Nc4ccc5cn[nH]c5c4)ccnc3cc21", "note": "[Compound A72]", "viability at 20 µM": 40.7}
{"smiles": "CC1=Cc2cc3nccc(Nc4ccc(O)c(C(F)(F)F)c4)c3cc2S1(=O)=O", "note": "[Compound A57]", "viability at 20 µM": 15.3}
{"smiles": "CC(C)C1=CS(=O)(=O)c2cc3c(Nc4ccc5scnc5c4)ccnc3cc21", "note": "[Compound A11]", "viability at 20 µM": 34.5}
{"smiles": "CC1=Cc2cc3nccc(Nc4ccc5cn[nH]c5c4)c3cc2S1(=O)=O", "note": "[Compound A35]", "viability at 20 µM": 33}
